The nature of data set [1]: Oral absorbability and pharmacokinetic profile evaluation test using type IV PDE inhibitory activity as the index. The data set is classed as in vivo. The note with it: orally administered to male Fisher rat at 3 mg/kg; plasma type IV PDE inhibitory activity as index; in comparison with a comparative compound. As to the method: Test Example 3. Oral absorbability and pharmacokinetic profile evaluation test using type IV PDE inhibitory activity as the index
The following assay was carried out in order to evaluate oral absorbability and pharmacokinetic profiles of the type IV PDE-inhibiting compounds of the invention.
1) Each test compound suspended in purified water containing 0.5% methyl cellulose was orally administered to a seven-week-old male Fisher rat at a dose of 3 mg/kg. In the control group, a solvent (0.5% methyl cellulose in purified water, 3 ml/kg) was administered in the same manner. After the oral administration, blood samples were periodically collected in the presence of heparin from the caudal vein of each rat under ether anesthesia, and plasma was prepared in the usual way.
2) The plasma prepared from each rat administered with the test compound or solvent was added to the type IV PDE measuring system shown in the above Test Example 1 so as to be a final concentration of 0.1%, and the type IV PDE inhibitory activity was measured.

The subject of data set [2] is P450 drug metabolizing enzyme present in the liver microsome. The data set can be described thus: In vitro drug metabolism test using liver microsome. It counts as in vitro ADME. Particulars: human and rat liver microsome, test compound 20 ng/ml, 37° C., 10, 20 and 30 minutes, residual ratio. On the procedure:
1) Human and rat liver microsome suspension (human microsome: Xenotech, rat microsome: Charles River) was diluted with 100 mM Na-K phosphate buffer (pH 7.4) to a protein concentration of 0.5 mg/ml. To a 100 μl portion of this suspension were added 2 μl of a test compound solution (a 10 μg/ml acetonitrile solution), 500 μl of 200 mM Na-K phosphate buffer (pH 7.4), 50 μl of 1 mM EDTA-NaOH (pH 7.4) and 200 μl of purified water, thereby preparing a substrate solution (concentration in the reaction solution: liver microsome (as the protein content) 0.05 mg/ml, test compound 20 ng/ml, 100 mM Na-K phosphate buffer, 0.1 mM EDTA-NaOH).
2) An NADPH production system was prepared by mixing 42 mg of NADP, 5 ml of 100 mM […] (G6P) and 5 ml of 100 mM MgCl2, and adding 57 μl of G6P dehydrogenase (about 1750 U/5 mg/ml) to the mixture. This was heated at 37° C. for 5 minutes and then ice-cooled until its use.
3) A 900 μl portion of the substrate solution was pre-incubated at 37° C. for 5 minutes, and then 100 μl of the NADPH production system was added thereto, following by reaction at 37° C. for 10, 20 and 30 minutes. After termination of the reaction by adding 2 ml of ethyl acetate, the whole was ice-cooled. In this connection, a control sample was prepared by adding 100 μl of the NADPH production system after adding 2 ml of ethyl acetate (0 minute reaction).
4) To the reaction solution was added 100 μl of an internal standard substance having a predetermined concentration (an acetonitrile solution), 1 ml of 0.5 M phosphoric acid and 2 ml of ethyl acetate, followed by shaking for 10 minutes. After 10 minutes of centrifugation at 2,500 rpm, the ethyl acetate layer was separated and evaporated to dryness, and the residue was dissolved in 100 μl of an HPLC mobile phase solvent. The test compound was eluted after about 12 minutes, and the internal standard substance after about 16 minutes, under the following conditions. (HPLC measuring conditions mobile phase: acetonitrile/20 mM ammonium acetate=2:3 (v/v), column: Discovery RP Amide C16, 4.6×35 mm (SUPELCO), flow rate: 0.8 ml/min., detection: UV 286 nm)
5) A ratio (residual ratio) of the peak height ratio after 10, 20 or 30 minutes of the reaction to the peak height ratio of each test compound in the control (peak height ratio to the internal standard substance) was calculated.

Counter-ions that a name gives are not always drawn.

Consider `CCn1c(=O)c(C2CCNCC2)c(-c2cccc(Cl)c2)c2ccc(C)nc21` (as salt: fumarate) [Example 28, 4-(3-chlorophenyl)-1-ethyl-7-methyl-3-(piperidin-4-yl)-1,8-naphthyridin-2(1H)-one monofumarate], for which the melting point (commonly the temperature, or range, at which the solid turns liquid) was in the range of 225 to 227 °C.
The same measure, in the same setting: then `CCn1c(=O)c(CCC(=N)N)c(-c2cccc(Cl)c2)c2ccc(C)nc21` (as salt: hydrochloride) [Example 40, 3-(2-amidinoethyl)-4-(3-chlorophenyl)-1-ethyl-7-methyl-1,8-naphthyridin-2(1H)-one monohydrochloride], with 228 to 230 °C; and `CCn1c(=O)c(CCCC(=O)O)c(-c2cccc(Cl)c2)c2ccc(C)nc21` (hydrate or solvate) [Example 61, 4-[4-(3-chlorophenyl)-1-ethyl-7-methyl-2-oxo-1,2-dihydro-1,8-naphthyridin-3-yl]butanoic acid], with 146 to 148 °C; and `CCOC(=O)c1c(-c2cccc(Cl)c2)c2ccc(C)nc2n(CC)c1=O` [Example 1, ethyl 4-(3-chlorophenyl)-1-ethyl-7-methyl-2-oxo-1,2-dihydro-1,8-naphthyridin-3-carboxylate], with 119 to 121 °C.
For `CCn1c(=O)c(CCC(=O)O)c(-c2cccc(Cl)c2)c2ccc(C)nc21` [Example 2, 3-[4-(3-chlorophenyl)-1-ethyl-7-methyl-2-oxo-1,2-dihydro-1,8-naphthyridin-3-yl]propanoic acid], the “oral absorbability and metabolic stability” value in data set [1] is “good oral absorbability and metabolic stability”. Moreover, in data set [2], the “metabolism by the P450 drug metabolizing enzyme present in the liver microsome” value (shortened to “metabolism”) is listed as “hardly metabolized”.
Compound `CCn1c(=O)c(C(N)=O)c(-c2cccc(Cl)c2)c2ccc(C)nc21` [Example 4, 4-(3-chlorophenyl)-1-ethyl-7-methyl-2-oxo-1,2-dihydro-1,8-naphthyridin-3-carboxamide] yielded a melting point of 249 to 252 °C.
Still for that read-out and setting: under `CCn1c(=O)c(CCC(=O)N(C)C)c(-c2cccc(Cl)c2)c2ccc(C)nc21` [Example 6, 3-[4-(3-chlorophenyl)-1-ethyl-7-methyl-2-oxo-1,2-dihydro-1,8-naphthyridin-3-yl]-N,N-dimethylpropanamide] stands 134 to 136 °C; under `CCOC(=O)Nc1c(-c2cccc(Cl)c2)c2ccc(C)nc2n(CC)c1=O` [Example 9, ethyl N-[4-(3-chlorophenyl)-1-ethyl-7-methyl-2-oxo-1,2-dihydro-1,8-naphthyridin-3-yl]carbamate], 183 to 184 °C; under `CCn1c(=O)c(N)c(-c2cccc(Cl)c2)c2ccc(C)nc21` [Example 10, 3-amino-4-(3-chlorophenyl)-1-ethyl-7-methyl-1,8-naphthyridin-2(1H)-one], 167 to 171 °C.
Same read-out and setting: then `CCn1c(=O)c(CCCNS(C)(=O)=O)c(-c2cccc(Cl)c2)c2ccc(C)nc21` [Example 14, N-{3-[4-(3-chlorophenyl)-1-ethyl-7-methyl-2-oxo-1,2-dihydro-1,8-naphthyridin-3-yl]propyl}methanesulfonamide], with 140 to 141 °C; and `CCn1c(=O)c(CCCO)c(-c2cccc(Cl)c2)c2ccc(C)nc21` [Example 16, 4-(3-chlorophenyl)-1-ethyl-3-(3-hydroxypropyl)-7-methyl-1,8-naphthyridin-2(1H)-one], with 109 to 110 °C.
In turn, `CCn1c(=O)c(-c2cccc(C(=O)O)c2)c(-c2cccc(Cl)c2)c2ccc(C)nc21` [Example 21, 3-[4-(3-chlorophenyl)-1-ethyl-7-methyl-2-oxo-1,2-dihydro-1,8-naphthyridin-3-yl]benzoic acid] showed a melting point of 254 to 256 °C. The “oral absorbability and metabolic stability” value in data set [1] is “good oral absorbability and metabolic stability”. The “metabolism” value in data set [2] was “hardly metabolized”.
`CCn1c(=O)c(C2CCNCC2)c(-c2cccc(Cl)c2)c2ccc(C)nc21` [Example 28, 4-(3-chlorophenyl)-1-ethyl-7-methyl-3-(piperidin-4-yl)-1,8-naphthyridin-2(1H)-one monofumarate]: the “oral absorbability and metabolic stability” value in data set [1] is “good oral absorbability and metabolic stability”. Moreover, the “metabolism” value in data set [2] is on record as “hardly metabolized”.
For `CCn1c(=O)c(CCCOC(=O)OC)c(-c2cccc(Cl)c2)c2ccc(C)nc21` [Example 34, 4-(3-chlorophenyl)-1-ethyl-3-[3-(methoxycarbonyloxy)propyl]-7-methyl-1,8-naphthyridin-2(1H)-one], the melting point was in the range of 92 to 93 °C.
In turn, `CCn1c(=O)c(CCCOC)c(-c2cccc(Cl)c2)c2ccc(C)nc21` [Example 35, 4-(3-chlorophenyl)-1-ethyl-3-(3-methoxypropyl)-7-methyl-1,8-naphthyridin-2(1H)-one] had a melting point of 96 to 97 °C.
Turning to `CCn1c(=O)c(CCN2CCC(C(=O)O)CC2)c(-c2cccc(Cl)c2)c2ccc(C)nc21` [Example 38, 1-{2-[4-(3-chlorophenyl)-1-ethyl-7-methyl-2-oxo-1,2-dihydro-1,8-naphthyridin-3-yl]ethyl}piperidine-4-carboxylic acid], the melting point lay in the range of 142 to 146 °C.
In turn, `CCn1c(=O)c(CCC(=O)O)c(-c2cccc(Cl)c2)c2ccc(Cl)nc21` [Example 41, 3-[7-chloro-4-(3-chlorophenyl)-1-ethyl-2-oxo-1,2-dihydro-1,8-naphthyridin-3-yl]propanoic acid] yielded a melting point of 197 to 199 °C. In data set [1], the “oral absorbability and metabolic stability” value was “good oral absorbability and metabolic stability”. The “metabolism” value in data set [2] is “hardly metabolized”.
Consider `CCn1c(=O)c(CCC(=O)O)c(-c2cccc(Cl)c2)c2ccc(CO)nc21` [Example 42, 3-[4-(3-chlorophenyl)-1-ethyl-7-hydroxymethyl-2-oxo-1,2-dihydro-1,8-naphthyridin-3-yl]propanoic acid], for which the melting point lay within 157 to 160 °C.
With `CCn1c(=O)c(CCC(=O)O)c(-c2cccc(Cl)c2)c2ccc(C=NO)nc21` [Example 43, 3-[4-(3-chlorophenyl)-1-ethyl-7-hydroxyiminomethyl-2-oxo-1,2-dihydro-1,8-naphthyridin-3-yl]propanoic acid], the melting point is 234 to 238 °C. In data set [1], the “oral absorbability and metabolic stability” value is “good oral absorbability and metabolic stability”. The “metabolism” value in data set [2] is reported as “hardly metabolized”.
Compound `CCn1c(=O)c(CCC(=O)O)c(-c2cccc(Cl)c2)c2ccc(NC)nc21` [Example 44, 3-[4-(3-chlorophenyl)-1-ethyl-7-methylamino-2-oxo-1,2-dihydro-1,8-naphthyridin-3-yl]propanoic acid] displayed a melting point of 202 to 204 °C.
Same read-out and setting: then `CCn1c(=O)c(CCC(=O)O)c(-c2cccc(Br)c2)c2ccc(C)nc21` [Example 46, 3-[4-(3-bromophenyl)-1-ethyl-7-methyl-2-oxo-1,2-dihydro-1,8-naphthyridin-3-yl]propanoic acid], with 161 to 162 °C; and `CCn1c(=O)c(CCCc2nnn[nH]2)c(-c2cccc(Cl)c2)c2ccc(C)nc21` [Example 70, 4-(3-chlorophenyl)-1-ethyl-7-methyl-3-[3-(1H-tetrazol-5-yl)propyl]-1,8-naphthyridin-2(1H)-one], with 155 to 158 °C; and `CCn1c(=O)c(CCC(=O)O)c(-c2cccs2)c2ccc(C)nc21` [Example 78], with 188 to 189 °C.
As to `CCn1c(=O)c(CCc2nnn[nH]2)c(-c2cccc(Br)c2)c2ccc(C)nc21` [Example 80], the melting point is 194 to 196 °C.
